Activity calls are given as the source filed them. No rule for the calls is given here.
target: Serine/threonine-protein phosphatase 5 (Homo sapiens) (UniProt P53041); experiment: PP5 phosphatase inhibitors, OMFP substrate, late-stage follow-up, biochemical, fluorescence, single concentration (AID 463222); settings: PP5 OMFP dephosphorylation, at 6.7 µM, active compounds read high
Sequence (P53041 whole entry, looked up): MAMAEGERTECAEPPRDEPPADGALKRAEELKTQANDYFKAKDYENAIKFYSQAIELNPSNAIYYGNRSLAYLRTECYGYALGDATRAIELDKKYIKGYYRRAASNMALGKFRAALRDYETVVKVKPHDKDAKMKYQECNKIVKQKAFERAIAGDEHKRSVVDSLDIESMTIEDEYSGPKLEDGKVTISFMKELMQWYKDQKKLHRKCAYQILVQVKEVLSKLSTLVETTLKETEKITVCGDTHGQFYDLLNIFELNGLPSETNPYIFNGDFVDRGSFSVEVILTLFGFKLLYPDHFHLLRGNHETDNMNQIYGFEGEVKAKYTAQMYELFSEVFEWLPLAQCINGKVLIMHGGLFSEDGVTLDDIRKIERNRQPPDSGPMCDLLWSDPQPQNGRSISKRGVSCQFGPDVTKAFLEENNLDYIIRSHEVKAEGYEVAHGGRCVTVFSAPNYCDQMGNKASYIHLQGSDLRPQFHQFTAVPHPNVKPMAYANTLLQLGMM

Row | Compound | inhibition
1 | CCOC(=O)c1cnc(-n2nc(C)cc2C)nc1NCCc1ccccc1 | 6.83% (inactive)
2 | COc1ccc(Cl)cc1C(=O)Nc1cccc(-c2ccc3nncn3n2)c1 | -0.16% (inactive)
3 | O=C1CCCC2=C1C1(O)C(=O)c3ccccc3C1(O)O2 (stereo not given) | 9.53% (inactive)
4 | Cc1[nH]n(-c2ccccc2)c(=O)c1C(c1ccc([N+](=O)[O-])cc1)c1c(C)[nH]n(-c2ccccc2)c1=O | -3.88% (inactive)
5 | CCOC(=O)C1=C(C)OC2(O)c3ccccc3C(=O)C12O (stereo not given) | 11.2% (inactive)
6 | Oc1ccccc1/C=N/Nc1cc(N2CCCC2)nc(N2CCCC2)n1 | 7.43% (inactive)
7 | O=C1Nc2ccccc2N2CCCC12 (stereo not given) | -3.11% (inactive)
8 | COc1cnc(-c2ccccn2)nc1Sc1ccccc1Cl | 3.05% (inactive)
9 | CCOc1ccc(NC(=S)Nc2ccc3nsnc3c2)cc1 | 3.93% (inactive)
10 | COc1ccc(NC(=O)C2C3CCC(O3)C2C(=O)O)c(OC)c1 (stereo not given) | 51.1%
11 | Cc1cc(C)c(S(=O)(=O)/N=C2\C=C(Sc3ncn[nH]3)C(=O)c3ccccc32)cc1C | 4.08% (inactive)
12 | Cc1ccc(-n2nc(C(=O)O)cc2-c2ccc(Cl)cc2)cc1 | -5.42% (inactive)
13 | CCCN(CC1CC1)c1nc(N)c2c(N)nc(OC)cc2c1C#N | 2.08% (inactive)
14 | COc1ccc2c(Cl)c(C(=O)N/N=C/c3ccc4c(c3)OCO4)sc2c1 | -2.37% (inactive)
15 | CCOC(=O)c1cnc(-n2nc(C)cc2C)nc1NCc1ccccc1 | 3.84% (inactive)
16 | COc1ccc(C(=O)c2nccc3cc(OC)c(OC)cc23)cc1OC | 2.42% (inactive)
17 | CCn1c2ccccc2c2cc(NC(=O)COC(=O)c3ccc(NC(=O)CC#N)cc3)ccc21 | -3.03% (inactive)
18 | CCCCN(CC)c1nc(N)c2c(N)nc(OCC)cc2c1C#N | 0.32% (inactive)
19 | CCOC(=O)c1cnc(-n2cc(C)cn2)nc1NCc1ccc2c(c1)OCO2 | 2.2% (inactive)
20 | O=C(O)c1cc(-c2ccc(Cl)c(Cl)c2)n(-c2ccc(F)cc2)n1 | -3.2% (inactive)
21 | c1ccc(-c2nccc(-c3ccc(-n4cnc5ccccc54)cc3)n2)nc1 | 6.97% (inactive)
22 | N#Cc1c(N2CCCC(O)C2)nc(N)c2c(N)nc3c(c12)CC(=O)N3C12CC3CC(CC(C3)C1)C2 (stereo not given) | 2.54% (inactive)

Row | Compound | inhibition
23 | O=C(O)c1n[nH]nc1-c1ccccc1 | 53.4%
24 | COc1ccc(CN2C(=O)Cc3c2nc(N)c2c(N)nc(N4CCCCC4)c(C#N)c32)cc1 | 1.97% (inactive)
25 | O=C(Nc1nc(-c2ccccn2)cs1)C1CC(=O)N(c2ccc3c(c2)OCCO3)C1 (stereo not given) | 2.9% (inactive)
26 | COc1cc(Br)c(C(=O)c2nccc3cc(OC)c(OC)cc23)cc1OC | 1.12% (inactive)
27 | CC(C)(CS(=O)(=O)[O-])NC(=O)CC[N+](C)(C)CCO | 0.86% (inactive)
28 | CCOC(=O)c1nn(-c2ccc(C)cc2)c(=O)c2c(N)scc12 | -0.12% (inactive)
29 | O=C(O)C1C2CCC(O2)C1C(=O)NC1CCCCC1 (stereo not given) | 42.5%
30 | O=c1[nH]c(Nc2ccccc2)cc2ccccc12 | 4.67% (inactive)
31 | O=C(NC1(O)C(=O)c2ccccc2C1=O)c1c(Cl)cccc1Cl | 8.39% (inactive)
32 | COc1cnc(-c2ccccn2)nc1Oc1cccc(Cl)c1 | 0.53% (inactive)
33 | COc1ccc(OCCCC(=O)Nc2nc(-c3ccccn3)cs2)cc1 | 5.93% (inactive)
34 | CCOC(=O)c1cnc(-n2nc(C)cc2C)nc1NC1CCCCC1 | 3.66% (inactive)
35 | COc1ccc(NC(=S)Nc2ccc3nsnc3c2)cc1 | 2.75% (inactive)
36 | COc1cnc(-c2ccccn2)nc1Sc1ccc(F)cc1 | 5.48% (inactive)
37 | COc1ccc(Sc2nc(-c3ccccn3)ncc2OC)cc1 | 3.64% (inactive)
38 | c1ccc(Nc2nc(-c3ccccn3)cs2)cc1 | 2.82% (inactive)
39 | COc1cnc(-c2ccccn2)nc1Oc1cccc(C(F)(F)F)c1 | -5.73% (inactive)
40 | COc1cnc(-c2ccccn2)nc1Sc1cccc(Cl)c1 | 4.14% (inactive)
41 | O=C(NC1(O)C(=O)c2ccccc2C1=O)c1ccccc1 | 4.22% (inactive)
42 | O=C(O)c1cc(-c2ccc(Cl)cc2)n(-c2cccc(Cl)c2)n1 | -5.16% (inactive)
43 | CCCCn1c(NC(=O)c2ccco2)c(C(=O)OCC)c2nc3ccccc3nc21 | 2.48% (inactive)
44 | COc1cnc(-c2ccccn2)nc1Sc1ccc(Cl)cc1 | 4.61% (inactive)

Row | Compound | inhibition
45 | Nc1cc2nsnc2cc1Br | 0.76% (inactive)
46 | CCOC(=O)c1sc2nc3c(SCC(=O)O)cc(C(=O)c4cc(F)ccc4O)cn3c(=O)c2c1C | -0.13% (inactive)
47 | Nc1nc(-c2ccccn2)nc(N)c1Cc1ccc(Cl)cc1Cl | 2.71% (inactive)
48 | COc1cnc(-c2ccccn2)nc1Sc1ccc(C)cc1 | 2.23% (inactive)
49 | CCOC(=O)c1cnc(-n2nc(C)cc2C)nc1NC(C)c1ccccc1 (stereo not given) | 5.83% (inactive)
50 | O=C(O)c1cc(-c2ccc(Cl)c(Cl)c2)n(-c2ccccc2)n1 | -2.01% (inactive)
51 | Oc1ccc(/C=N/Nc2cc(N3CCOCC3)nc(N3CCOCC3)n2)c(O)c1 | 11.4% (inactive)
52 | O=S(=O)(Cc1cc(NCc2ccccc2)nc(-c2ccccn2)n1)c1ccccc1 | 4.59% (inactive)
53 | Oc1cccc(/C=N/Nc2cc(N3CCCC3)nc(N3CCCC3)n2)c1 | 9.26% (inactive)
54 | COc1ccc(Cn2c(N)c(C(=O)NCc3ccco3)c3nc4ccccc4nc32)cc1OC | 2.29% (inactive)
55 | COc1cnc(-c2ccccn2)nc1Sc1ccccc1 | 3.72% (inactive)
56 | CC(=O)C(C(C)=O)C1(O)C(=O)c2ccccc2C1=O | 6.75% (inactive)
57 | CCOC(=O)c1sc(N2C(=O)C(O)=C(C(=O)c3ccco3)C2c2cccc([N+](=O)[O-])c2)nc1C (stereo not given) | -2.08% (inactive)
58 | Cc1nnc(NC(=O)C2C3C=CC(O3)C2C(=O)O)s1 (stereo not given) | 22.3%
59 | Cc1ccc(C(=O)NNc2cc(N3CCCC3)nc(N3CCCC3)n2)cc1 | 8.52% (inactive)
60 | CN1CCN(C(c2ccccn2)c2cc(Cl)c3cccnc3c2O)CC1 (stereo not given) | 8.11% (inactive)
61 | Clc1ccc(-n2nnnc2-c2cnc(-c3ccccn3)nc2-c2cccs2)cc1 | -2.47% (inactive)
62 | Cc1ccc(C(=O)NC2(O)C(=O)c3ccccc3C2=O)cc1C | 6.31% (inactive)
63 | N#Cc1c(-c2ccc(Cl)cc2)cc(-c2cccs2)nc1SCC(=O)O | -2.49% (inactive)
64 | O=C(NC1(O)C(=O)c2ccccc2C1=O)c1ccc(C(F)(F)F)cc1 | 11.6% (inactive)
65 | COc1ccccc1Sc1nc(-c2ccccn2)ncc1OC | -3.47% (inactive)

— PubChem BioAssay AID463222 (The Scripps Research Institute Molecular Screening Center, 2010)
